Laboratory results from US11447466B2, “Substituted indole compounds useful as inhibitors of TLR7/8/9” (BRISTOL-MYERS SQUIBB COMPANY, priority 2017, dated 2022).

Legend:
Type in all cases: cell-based
[1] = biological target: T1, human TLR8 (Homo sapiens, UniProt Q9NR97); test: TLR8 inhibition reporter assay (HEK-Blue SEAP reporter, R848 stimulation); conditions: HEK-Blue cells overexpressing human TLR8, SEAP reporter, R848 15.9 μM, 22 hour incubation
T1 construct: host or cells: HEK-Blue cells
T1 sequence (Q9NR97 27-1041): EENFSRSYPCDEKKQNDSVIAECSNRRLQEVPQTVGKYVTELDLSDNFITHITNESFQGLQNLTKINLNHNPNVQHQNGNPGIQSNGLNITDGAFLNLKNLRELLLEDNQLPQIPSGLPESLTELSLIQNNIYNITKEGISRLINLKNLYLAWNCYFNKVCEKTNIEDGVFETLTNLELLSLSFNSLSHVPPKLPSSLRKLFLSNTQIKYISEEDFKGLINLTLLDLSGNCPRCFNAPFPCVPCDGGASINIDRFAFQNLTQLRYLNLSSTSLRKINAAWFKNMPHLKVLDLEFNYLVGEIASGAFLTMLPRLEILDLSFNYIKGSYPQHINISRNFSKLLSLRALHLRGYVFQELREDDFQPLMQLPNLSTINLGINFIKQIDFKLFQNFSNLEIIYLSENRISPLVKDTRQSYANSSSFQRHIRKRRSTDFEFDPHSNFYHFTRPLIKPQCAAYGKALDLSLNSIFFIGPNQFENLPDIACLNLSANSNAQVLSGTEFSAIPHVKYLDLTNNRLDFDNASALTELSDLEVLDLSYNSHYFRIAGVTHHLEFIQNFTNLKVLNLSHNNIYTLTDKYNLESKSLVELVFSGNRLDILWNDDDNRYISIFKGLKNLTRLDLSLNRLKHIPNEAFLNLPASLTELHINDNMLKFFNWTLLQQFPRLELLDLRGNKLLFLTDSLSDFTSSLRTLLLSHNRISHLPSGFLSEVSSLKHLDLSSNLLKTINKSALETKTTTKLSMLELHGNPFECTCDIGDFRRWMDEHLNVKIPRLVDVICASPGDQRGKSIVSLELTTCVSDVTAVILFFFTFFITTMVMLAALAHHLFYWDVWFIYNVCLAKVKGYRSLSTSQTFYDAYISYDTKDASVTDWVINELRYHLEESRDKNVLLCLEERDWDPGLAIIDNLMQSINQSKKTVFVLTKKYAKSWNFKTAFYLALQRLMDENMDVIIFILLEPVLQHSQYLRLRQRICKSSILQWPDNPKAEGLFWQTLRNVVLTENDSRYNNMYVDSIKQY
In short: (§1)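 Screening used HEK-Blue cells overexpressing one human TLR (7, 8 or 9) and an IFN-β minimal promoter–NF-κB/AP-1 SEAP construct. Stimulation lasted 22 h at 37 °C with receptor-specific agonist: gardiquimod, R848 or ODN2006 at 7.5 μM, 15.9 μM and 5 nM.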

[2] = biological target: T2, human TLR7 (Homo sapiens, UniProt Q9NYK1); test: TLR7 inhibition reporter assay (HEK-Blue SEAP reporter, gardiquimod stimulation); conditions: HEK-Blue cells overexpressing human TLR7, SEAP reporter, gardiquimod 7.5 μM, 22 hour incubation
T2 construct: host or cells: HEK-Blue cells
T2 sequence (Q9NYK1 27-1049): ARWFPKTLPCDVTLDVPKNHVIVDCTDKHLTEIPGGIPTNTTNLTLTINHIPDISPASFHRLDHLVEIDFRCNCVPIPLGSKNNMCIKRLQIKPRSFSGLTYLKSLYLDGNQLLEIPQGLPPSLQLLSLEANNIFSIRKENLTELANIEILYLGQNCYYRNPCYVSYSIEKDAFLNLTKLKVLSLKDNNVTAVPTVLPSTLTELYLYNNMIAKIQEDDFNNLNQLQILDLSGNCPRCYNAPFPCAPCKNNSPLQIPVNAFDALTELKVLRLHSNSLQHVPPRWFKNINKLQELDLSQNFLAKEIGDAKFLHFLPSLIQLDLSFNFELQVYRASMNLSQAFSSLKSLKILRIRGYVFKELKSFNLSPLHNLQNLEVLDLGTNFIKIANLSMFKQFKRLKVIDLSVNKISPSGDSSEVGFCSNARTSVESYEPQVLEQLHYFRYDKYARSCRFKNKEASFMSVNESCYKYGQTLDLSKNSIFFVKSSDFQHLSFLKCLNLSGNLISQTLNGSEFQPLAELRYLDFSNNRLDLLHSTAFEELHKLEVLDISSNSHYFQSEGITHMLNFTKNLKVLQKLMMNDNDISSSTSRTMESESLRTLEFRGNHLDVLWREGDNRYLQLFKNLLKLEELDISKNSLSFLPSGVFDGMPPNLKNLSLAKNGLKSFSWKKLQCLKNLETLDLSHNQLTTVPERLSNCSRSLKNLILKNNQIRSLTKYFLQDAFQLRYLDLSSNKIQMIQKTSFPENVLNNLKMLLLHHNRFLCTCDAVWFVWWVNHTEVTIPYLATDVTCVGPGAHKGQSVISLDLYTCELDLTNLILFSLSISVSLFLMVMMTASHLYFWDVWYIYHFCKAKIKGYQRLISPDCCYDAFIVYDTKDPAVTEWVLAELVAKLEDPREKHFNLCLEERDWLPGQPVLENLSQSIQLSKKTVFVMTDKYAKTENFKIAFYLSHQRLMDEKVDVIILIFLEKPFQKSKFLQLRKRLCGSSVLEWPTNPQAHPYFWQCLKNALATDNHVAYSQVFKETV
In short: as §1

[3] = biological target: T3, human TLR9 (Homo sapiens, UniProt Q9NR96); test: TLR9 inhibition reporter assay (HEK-Blue SEAP reporter, ODN2006 stimulation); conditions: HEK-Blue cells overexpressing human TLR9, SEAP reporter, ODN2006 5 nM, 22 hour incubation
T3 construct: host or cells: HEK-Blue cells
T3 sequence (Q9NR96 26-1032): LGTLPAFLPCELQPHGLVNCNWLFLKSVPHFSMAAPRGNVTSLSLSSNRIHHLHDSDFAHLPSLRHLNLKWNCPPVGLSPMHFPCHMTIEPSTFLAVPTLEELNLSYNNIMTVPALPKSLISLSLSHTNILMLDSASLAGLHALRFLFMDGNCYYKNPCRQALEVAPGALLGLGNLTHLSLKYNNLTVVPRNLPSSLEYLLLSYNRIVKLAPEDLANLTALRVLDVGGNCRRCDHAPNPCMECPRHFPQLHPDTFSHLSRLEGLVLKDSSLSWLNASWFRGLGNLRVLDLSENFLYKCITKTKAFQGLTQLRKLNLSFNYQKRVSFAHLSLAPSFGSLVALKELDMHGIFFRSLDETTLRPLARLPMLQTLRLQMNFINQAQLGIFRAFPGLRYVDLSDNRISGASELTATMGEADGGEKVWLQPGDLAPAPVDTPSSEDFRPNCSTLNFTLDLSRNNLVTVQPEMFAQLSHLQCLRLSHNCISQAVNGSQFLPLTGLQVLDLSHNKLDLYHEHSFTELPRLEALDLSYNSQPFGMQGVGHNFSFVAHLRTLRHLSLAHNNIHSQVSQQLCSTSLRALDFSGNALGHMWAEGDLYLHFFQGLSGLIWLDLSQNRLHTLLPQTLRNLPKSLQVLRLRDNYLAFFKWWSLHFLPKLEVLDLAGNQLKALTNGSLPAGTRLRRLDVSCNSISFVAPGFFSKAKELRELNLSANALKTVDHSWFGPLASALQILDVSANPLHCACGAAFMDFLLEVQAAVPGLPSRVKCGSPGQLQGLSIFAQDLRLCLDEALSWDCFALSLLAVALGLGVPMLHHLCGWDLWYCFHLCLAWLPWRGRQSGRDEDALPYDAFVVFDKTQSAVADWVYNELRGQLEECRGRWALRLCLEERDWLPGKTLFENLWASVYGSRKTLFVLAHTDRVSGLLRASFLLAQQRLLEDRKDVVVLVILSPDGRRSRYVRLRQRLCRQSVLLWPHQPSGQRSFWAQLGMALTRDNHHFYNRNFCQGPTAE
In short: as §1

IC50 [1] [nM]	IC50 [2] [nM]	IC50 [3] [nM]	Structure (SMILES)
54.9	66.1	17200	COc1c(C)c(-c2[nH]c3ccc(C4CCN(C5COC5)CC4)cc3c2C(C)C)cn(C)c1=O [Example 215, 5-(3-isopropyl-5-(1-(oxetan-3-yl)piperidin-4-yl)-1H-indol-2-yl)-3-methoxy-1,4-dimethylpyridin-2(1H)-one]
163	659	10900	COc1cc(-c2[nH]c3ccc(C4CCN(C5COC5)CC4)cc3c2C(C)C)c(C)n(C)c1=O [Example 217, 5-(3-isopropyl-5-(1-(oxetan-3-yl)piperidin-4-yl)-1H-indol-2-yl)-3-methoxy-1,6-dimethylpyridin-2(1H)-one]
9.1	48	22300	Cc1c(-c2[nH]c3ccc(C4CCN(C5COC5)CC4)cc3c2C(C)C)cc(C#N)c(=O)n1C [Example 219, 5-(3-isopropyl-5-(1-(oxetan-3-yl)piperidin-4-yl)-1H-indol-2-yl)-1,6-dimethyl-2-oxo-1,2-dihydropyridine-3-carbonitrile]
1.4	24.5	2780	Cc1c(-c2[nH]c3ccc(C4CCN(C5CCOCC5)CC4)cc3c2C(C)C)cc(C#N)c(=O)n1C [Example 220, 5-(3-isopropyl-5-(1-(tetrahydro-2H-pyran-4-yl)piperidin-4-yl)-1H-indol-2-yl)-1,6-dimethyl-2-oxo-1,2-dihydropyridine-3-carbonitrile]
9.3	67	25400	Cc1c(-c2[nH]c3ccc(C4CCN(C5COC5)CC4)cc3c2C(C)C)cn(C)c(=O)c1C#N [Example 221, 5-(3-isopropyl-5-(1-(oxetan-3-yl)piperidin-4-yl)-1H-indol-2-yl)-1,4-dimethyl-2-oxo-1,2-dihydropyridine-3-carbonitrile]
0.9	15.6	3070	Cc1c(-c2[nH]c3ccc(C4CCN(C5CCOCC5)CC4)cc3c2C(C)C)cn(C)c(=O)c1C#N [Example 222, 5-(3-isopropyl-5-(1-(tetrahydro-2H-pyran-4-yl)piperidin-4-yl)-1H-indol-2-yl)-1,4-dimethyl-2-oxo-1,2-dihydropyridine-3-carbonitrile]
13.6	10	5910	Cc1cc(-c2[nH]c3ccc(C4CCN(CC5CC5)CC4)cc3c2C(C)C)cn(C)c1=O [Example 223, 5-(5-(1-(cyclopropylmethyl)piperidin-4-yl)-3-isopropyl-1H-indol-2-yl)-1,3-dimethylpyridin-2(1H)-one]
4.5	1.8	14000	CCCN1CCC(c2ccc3[nH]c(-c4cc(C)c(=O)n(C)c4)c(C(C)C)c3c2)CC1 [Example 224, 5-(3-isopropyl-5-(1-propylpiperidin-4-yl)-1H-indol-2-yl)-1,3-dimethylpyridin-2(1H)-one]
3.6	4.6	6990	Cc1cc(-c2[nH]c3ccc(C4CCN(CC5CCOC5)CC4)cc3c2C(C)C)cn(C)c1=O (stereo not drawn) [Example 225, 5-(3-isopropyl-5-(1-((tetrahydrofuran-3-yl)methyl)piperidin-4-yl)-1H-indol-2-yl)-1,3-dimethylpyridin-2(1H)-one]
7	3.8	10400	CC(C)c1c(-c2cc(Cl)c(=O)n(C)c2)[nH]c2ccc(C3CCN(C4CCOCC4)CC3)cc12 [Example 226, 3-chloro-5-(3-isopropyl-5-(1-(tetrahydro-2H-pyran-4-yl)piperidin-4-yl)-1H-indol-2-yl)-1-methylpyridin-2(1H)-one]
4.1	3.8	3040	Cc1cc(-c2[nH]c3ccc(C4CCN(Cc5cnn(C(C)C)c5)CC4)cc3c2C(C)C)cn(C)c1=O [Example 227]
4.3	3.6	4270	CCCn1cc(CN2CCC(c3ccc4[nH]c(-c5cc(C)c(=O)n(C)c5)c(C(C)C)c4c3)CC2)cn1 [Example 228, 5-(3-isopropyl-5-(1-((1-propyl-1H-pyrazol-4-yl)methyl)piperidin-4-yl)-1H-indol-2-yl)-1,3-dimethylpyridin-2(1H)-one]
